In brackets after ≈: the same amount, converted by molar mass. Like-named read-outs stand apart in the source and are kept apart here.
Assays:
[1] = system: Wild-type E. fecalis (NR 31975); experiment: MIC against wild-type strain (mutant study); assay type: cell-based, Enterococcus fecalis
[2] = system: Mutant-11 of Enterococcus fecalis NR 31975; experiment: microbe, parasite or virus in culture; assay type: cell-based
[3] = system: fibroblast-like monkey kidney cell line (VERO cell); experiment: In vitro cytotoxicity, MTS assay, VERO cells; assay type: cell-based; details: at concentration up to 128 μg/mL; tested at 64 and 128 μg/mL; two hours
Procedure: Toxicity assessment: Compounds AS005H, AS005J, AS004B, AS005K, AS005A and 005D were assayed (at concentrations of 64 and 128 μg/mL) against a fibroblast-like monkey kidney cell line (VERO cell) to determine the potential toxic effect in vitro. Briefly, cells were cultured in Minimum Essential Medium (MEM) supplemented with 10% fetal bovine serum (FBS), 1 mM sodium pyruvate, and penicillin-streptomycin at 37° C. with CO2 (5%). Control cells received DMSO alone at a concentration equal to that in drug-treated cell samples. The cells were incubated with the compounds (in triplicate) in a 96-well plate at 37° C. with CO2 (5%) for two hours. The assay reagent MTS 3-(4,5-dimethylthiazol-2-yl)-5-(3-carboxymethoxyphenyl)-2-(4-sulfophenyl)-2H-tetrazolium) (Promega, Madison, WI, USA) was subsequently added and the plate was incubated for four hours. Absorbance readings (at OD490) were taken using a kinetic microplate reader (Molecular Devices, Sunnyvale, CA, USA). The quantity of viable cells after treatment with each compound was expressed as a percentage of the viability of DMSO-treated control cells (average of triplicate wells±standard deviation). The toxicity data was analyzed via a two-way ANOVA, with post hoc Dunnet's multiple comparisons test (P<0.05), utilizing GraphPad Prism 6.0 (GraphPad Software, La Jolla, CA).
(§1) Percent viable mammalian cells (measured as average absorbance ratio (test agent relative to DMSO) for cytotoxicity analysis of compounds AS005H, AS005J, AS004B, AS005K, AS005A and 005D (tested in triplicates) at 64 and 128 μg/mL against VERO cells using the MTS 3-(4,5-dimethylthiazol-2-yl)-5-(3-carboxymethoxyphenyl)-2-(4-sulfophenyl)-2H-tetrazolium) assay. Dimethyl sulfoxide (DMSO) was used as a negative control to determine a baseline measurement for the cytotoxic impact of each compound. The absorbance values represent an average of a minimum of three samples analyzed for each compound. Error bars represent standard deviation values for the absorbance values.

[4] = system: Mutant-8 of Enterococcus fecalis NR 31975; experiment: microbe, parasite or virus in culture; assay type: cell-based
[5] = system: Enterococcus faecalis-S613 HM-334; experiment: MIC in presence of 4% human serum albumin; assay type: cell-based; details: TSB supplemented with 4% human serum albumin
Outline: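 Vancomycin-resistant strain at about 5×10^5 CFU/mL in TSB with 4% human serum albumin, with compounds serially diluted, following CLSI. Incubation was aerobic, 18–20 h at 37°C. MIC is the lowest concentration fully inhibiting visible growth.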

[6] = system: Mutant-3 of Enterococcus fecalis NR 31975; experiment: microbe, parasite or virus in culture; assay type: cell-based
[7] = system: Mutant-12 of Enterococcus fecalis NR 31975; experiment: microbe, parasite or virus in culture; assay type: cell-based
[8] = system: human colorectal adenocarcinoma (Caco-2) cell; experiment: In vitro cytotoxicity, MTS assay, Caco-2 cells; details: at concentration up to 128 μg/mL; tested at 64 and 128 μg/mL; two hours
Procedure: Method: Compounds AS005H, AS005J, AS004B, AS005K, AS005A and 005D were assayed (at concentrations of 64 and 128 μg/mL) against a human colorectal adenocarcinoma (Caco-2) cell to determine the potential toxic effect to mammalian cells in vitro. Briefly, cells were cultured in Dulbecco's Modified Eagle Medium (DMEM) supplemented with 20% fetal bovine serum (FBS), non-essential amino acids (1×), penicillin-streptomycin at 37° C. with CO2 (5%). Control cells received DMSO alone at a concentration equal to that in drug-treated cell samples. The cells were incubated with the compounds (in triplicate) in a 96-well plate at 37° C. with CO2 (5%) for two hours. The assay reagent MTS 3-(4,5-dimethylthiazol-2-yl)-5-(3-carboxymethoxyphenyl)-2-(4-sulfophenyl)-2H-tetrazolium) (Promega, Madison, WI, USA) was subsequently added and the plate was incubated for four hours. Absorbance readings (at OD490) were taken using a kinetic microplate reader (Molecular Devices, Sunnyvale, CA, USA). The quantity of viable cells after treatment with each compound was expressed as a percentage of the viability of DMSO-treated control cells (average of triplicate wells±standard deviation). The toxicity data was analyzed via a two-way ANOVA, with post hoc Dunnet's multiple comparisons test (P<0.05), utilizing GraphPad Prism 6.0 (GraphPad Software, La Jolla, CA).
as §1, with “of” for “of compounds”, “005D compounds” for “005D”, “triplicate)” for “triplicates)”, “Caco-2” for “VERO”, “values. […]” for “values.”

[9] = Enterococcus, Table 4, read-out: MIC

SMILES	MIC ([1]; Table 4) [µg/mL]	MIC ([2]; Mutant-11) [µg/mL]	toxicity to VERO cells (percent viable cells relative to DMSO) [3]	MIC ([4]; Mutant-8) [µg/mL]	MIC [5] [µg/mL]	MIC ([6]; Mutant-3) [µg/mL]	MIC ([7]; Mutant-12) [µg/mL]	toxicity to Caco-2 cells (percent viable cells relative to DMSO) [8]	MIC [1, 9] [µg/mL]	MIC ([2]; Enterococcus) [µg/mL]	MIC ([4]; Enterococcus) [µg/mL]	MIC ([5]; Enterococcus, read-out: MIC) [µg/mL]	MIC ([6]; Enterococcus) [µg/mL]	MIC ([7]; Enterococcus) [µg/mL]
CC(C)=CC(=O)Nc1nnc(S(N)(=O)=O)s1 [CAI0016, 3-Methyl-N-(5-sulfamoyl-1,3,4-thiadiazol-2-yl) but-2-enamide]	1 (≈ 3.81 µM)	4 (≈ 15.2 µM)	non-toxic	4 (≈ 15.2 µM)	>256	4 (≈ 15.2 µM)	8 (≈ 30.5 µM)							
CC(C)C(=O)Nc1nnc(S(N)(=O)=O)s1 [CAI0011, N-(5-Sulfamoyl-1,3,4-thiadiazol-2-yl) isobutyramide]			non-toxic					non-toxic						
CC(C)(C)C(=O)Nc1nnc(S(N)(=O)=O)s1 [CAI0010, N-(5-Sulfamoyl-1,3,4-thiadiazol-2-yl) pivalamide]			non-toxic					non-toxic	0.5 (≈ 1.89 µM)	4 (≈ 15.1 µM)	8 (≈ 30.3 µM)	> 256	4 (≈ 15.1 µM)	8 (≈ 30.3 µM)
NS(=O)(=O)c1nnc(NC(=O)CCC2CCCC2)s1 [CAI0015]	0.0625 (≈ 0.205 µM)	2 (≈ 6.57 µM)	non-toxic	2 (≈ 6.57 µM)	>256	1 (≈ 3.29 µM)	2 (≈ 6.57 µM)							
CC(=O)Nc1nnc(S(N)(=O)=O)s1 [Acetazolamide, reference compound]										16 (≈ 72 µM)	32 (≈ 144 µM)	> 256	32 (≈ 144 µM)	32 (≈ 144 µM)
CC(=O)NC[C@H]1CN(c2ccc(N3CCOCC3)c(F)c2)C(=O)O1 [Linezolid, reference compound]										4 (≈ 11.9 µM)	8 (≈ 23.7 µM)		4 (≈ 11.9 µM)	4 (≈ 11.9 µM)
CCc1ccc(C(=O)Nc2nnc(S(N)(=O)=O)s2)cc1 [CAI0017, 4-Ethyl-N-(5-sulfamoyl-1,3,4-thiadiazol-2-yl)benzamide]			non-toxic					non-toxic	2 (≈ 6.4 µM)	8 (≈ 25.6 µM)	8 (≈ 25.6 µM)		8 (≈ 25.6 µM)	16 (≈ 51.2 µM)
